According to patent US12129265B2, “Therapeutic agents and uses thereof” (Ankh Life Sciences Limited, priority 2020, dated 2024):
Read-outs that look alike come from different tables or passages of the source.

Columns and labels:
Experiment in all cases: CellTiter-Glo in vitro cell proliferation assay, Example 8
Assay type in all cases: cell-based, Human
[1] = system: A2780 cells; conditions: A2780, Ovarian, read-out: Mean IC50
Procedure: (§1) In this Example, in vitro cell proliferation assays were performed using: (1) Human Myeloma tumor cell lines; (2) Human Lymphoma tumor cell lines; (3) Solid Human tumor cell lines; and (4) Parental, Lenalidomide resistant and Bortezomib resistant Jeko-1 Mantle cell Lymphoma tumor cell lines. The compounds tested were three diharmaline compounds, namely the 518B562 (or simply 562), 560, and 561 compounds. In addition, a monoharmaline product designated as 518F014 was also tested. This monoharmaline product had the following structure:
(§2) Each proliferation assay was carried out as follows. The test cells were plated in growth media using a 384-well microtiter plate at 50 μL volume. The cells were incubated for 24 hours at 37° C. in a humidified incubator. After 24 hours of incubation, the test compounds were added to the test wells in DSMO solvent, at concentrations ranging from 0.0075-100 μM. Control wells received equal volumes of DSMO, without compound. Following drugging, the cells were incubated for 72 hours at 37° C. in a humidified incubator. After this exposure, 100 μL of a 1:1 mixture of sterile water and CellTiter-Glo® reagent (Promega) was added to each well. The plates were then incubated for 60 minutes at room temperature, followed by recording the luminescence value of each well using a luminometer as a measure of cell proliferation.

[2] = system: A2780CP cells; conditions: Ovarian, read-out: Mean IC50
Procedure: as §1, §2

[3] = system: A498 cells; conditions: A498, RCC; read-out: Mean IC50
Procedure: as §1, §2

[4] = system: AN3CA cells; conditions: Endometrial, read-out: Mean IC50
Procedure: as §1, §2

[5] = system: ASPC-1 cells; conditions: ASPC-1, Pancreatic, read-out: Mean IC50
Procedure: as §1, §2

[6] = system: BxPC-3 cells; conditions: BxPC-3, Pancreatic; read-out: Mean IC50
Procedure: as §1, §2

[7] = system: DOHH-2 cells; conditions: DoHH-2, GCB-DLBCL, read-out: Mean IC50
Procedure: as §1, §2

[8] = system: FaDu cells; conditions: H&N - SC, read-out: Mean IC50
Procedure: as §1, §2

[9] = system: H1650 (EGFR mut) cells; conditions: NSCLC, read-out: Mean IC50
Procedure: as §1, §2

[10] = system: H1975 (EGFR mut) cells; conditions: NSCLC, read-out: Mean IC50
Procedure: as §1, §2

[11] = system: HCC70 cells; conditions: HCC70, TNBC; read-out: Mean IC50
Procedure: as §1, §2

[12] = system: HEC-1a cells; conditions: Endometrial, read-out: Mean IC50
Procedure: as §1, §2

[13] = system: JIM1 cells; conditions: JIM1, HMCL, read-out: Mean IC50
Procedure: as §1, §2

[14] = system: KMM-1 cells; conditions: KMM-1, HMCL-A, read-out: Mean IC50
Procedure: as §1, §2

[15] = system: KMS-34 cells; conditions: KMS-34, HMCL-B; read-out: Mean IC50
Procedure: as §1, §2

[16] = system: L363 cells; conditions: L363, PCL/MM, read-out: Mean IC50
Procedure: as §1, §2

[17] = system: MDA-MB-231 cells; conditions: MDA-MB-231, TNBC; read-out: Mean IC50
Procedure: as §1, §2

[18] = system: MDA-MB-468 cells; conditions: MDA-MB-468, TNBC; read-out: Mean IC50
Procedure: as §1, §2

[19] = system: MIA PaCa-2 cells; conditions: MIA PaCa-2, Pancreatic, read-out: Mean IC50
Procedure: as §1, §2

[20] = system: MOLP-8 cells; conditions: MOLP-8, MM IgD; read-out: Mean IC50
Procedure: as §1, §2

[21] = system: OCI-LY3 cells; conditions: OCI-LY3, ABC-DLBCL; read-out: Mean IC50
Procedure: as §1, §2

[22] = system: RPMI-8226 cells; conditions: RPMI-8226, HMM
Procedure: as §2
In this example, different cell lines were subjected to in vitro cell proliferation assays as described in Example 8. In particular, the cell lines are identified in the following Table 17, and the tissue types were: Pancreatic; Endometrial; Triple-Negative Breast Cancer (TNBC); Non-Small-Cell Lung Carcinoma (NSCLC); Ovarian; Renal Cell Carcinoma (RCC); Cervical-Squamous Cell; […] (H&N-Squamous Cell); Germinal Center B Cell-Like Novo Diffuse Large B-Cell Lymphoma (GCB-DLBCL); Activated B-Cell—Diffuse Large B Cell Lymphoma (ABC-DLBCL); Human Myeloma; Human Myeloma Cell Line Lymphocyte-Like; Human Myeloma Cell Line Lymphocyte-Like Myeloma Pleural Effusion Infiltration; Human Multiple Myeloma; Plasma Cell Leukemia/Multiple Myeloma Epstein-Barr Nuclear Antigen-Negative (EBNA-Negative) and to Express mRNA for Proto-Oncogene B-Cell Lymphoma 2 (BCL2); Multiple Myeloma from Peripheral Blood Type IgD Lmabda.

[23] = system: SiHA cells; conditions: Cervical - SC, read-out: Mean IC50
Procedure: as §1, §2

Row | SMILES | IC50 [1] | IC50 [2] | IC50 [4] | IC50 [5] | IC50 [6] | IC50 [7] | IC50 [8] | IC50 [9] | IC50 [10] | IC50 [11] | IC50 [13] | IC50 [14] | IC50 [15] | IC50 [16] | IC50 [17] | IC50 [18] | IC50 [19] | IC50 [20] | IC50 [21] | IC50 [22] | other results
1 | COc1ccc2c3c([nH]c2c1)C(CC(CC1=NCCc2c1[nH]c1cc(OC)ccc21)c1ccc(OC)c(Oc2ccccc2)c1)=NCC3 [compound 10] | 65 µM | 29.4 µM | 31.7 µM | 23.8 µM | 27.6 µM | 2.78 µM | 49.7 µM | 13.3 µM | 64 µM | 50.2 µM | 20.1 µM | 11.1 µM | 4.87 µM | 35.6 µM | 43.7 µM | 11.4 µM | 11.9 µM | 8.28 µM | 7.57 µM | 3.98 µM | IC50 [3]: 79.2 µM; IC50 [12]: 88.1 µM
2 | COc1ccc2c3c([nH]c2c1)C(CC(CC1=NCCc2c1[nH]c1cc(OC)ccc21)c1cccc(-c2ccccc2)c1)=NCC3 [compound 18] | 26.3 µM | 31.2 µM | 28.8 µM | 43.8 µM | 36.2 µM | 8.55 µM | 49.2 µM | 45.4 µM | 59.1 µM | 36.3 µM | 39.8 µM | 33.6 µM | 17.8 µM | 34.8 µM | 43.9 µM | 48.7 µM | 32.5 µM | 12.2 µM | 25 µM | 12.3 µM | IC50 [3]: 93.4 µM; IC50 [12]: 49.8 µM
3 | COc1ccc2c3c([nH]c2c1)C(CC(CC1=NCCc2c1[nH]c1cc(OC)ccc21)c1cc(Cl)c(O)c(OC)c1)=NCC3 [compound 9] | 35.7 µM | 60.3 µM | 29.3 µM | 70 µM | 30 µM | 9.76 µM | 72.3 µM | 79.7 µM | 54.6 µM | 39 µM | 40.6 µM | 16 µM | 11.4 µM | 19.7 µM | 45.8 µM | 12.7 µM | 52.6 µM | 6.59 µM | 11.9 µM | 11.5 µM | IC50 [12]: 95.6 µM
4 | COc1ccc(C(CC2=NCCc3c2[nH]c2cc(OC)ccc32)CC2=NCCc3c2[nH]c2cc(OC)ccc32)c(O)c1 [compound 8] | 18.7 µM | 49.8 µM | 20.2 µM | 55.6 µM | 21.9 µM | 6.37 µM | 16.1 µM | 59.9 µM | 55.1 µM | 24.9 µM | 14.3 µM | 13.2 µM | 11.1 µM | 12.6 µM | 24.4 µM | 8.45 µM | 24.2 µM | 10.1 µM | 11.3 µM | 11.5 µM | IC50 [3]: 78.7 µM; IC50 [12]: 65.8 µM
5 | COc1cc(C2CC3(CC4(NCCc5sccc54)C2C2=NCCc4sccc42)NCCc2sccc23)ccc1O (stereo not shown) [HRM05] | – | – | – | – | – | – | – | – | – | – | – | – | – | – | – | – | – | – | – | – | IC50 ([1]; Homo sapiens): 15.9 µM; IC50 ([5]; Homo sapiens, ASPC1): 20.2 µM; IC50 ([7]; Homo sapiens): 17.6 µM; IC50 ([8]; Homo sapiens): 14 µM; IC50 ([13]; Homo sapiens): 17.6 µM; IC50 ([14]; Homo sapiens): 12.5 µM; IC50 ([16]; Homo sapiens, L-363): 13.7 µM; IC50 ([19]; Homo sapiens): 12.2 µM
6 | COc1ccc2c3c([nH]c2c1)C(CC(CC1=NCCc2c1[nH]c1cc(OC)ccc21)c1ccc(OC)c(O)c1Br)=NCC3 [compound 13] | 11.8 µM | 23.4 µM | 7.82 µM | 82.5 µM | 16.6 µM | 6.52 µM | 13.5 µM | 21.2 µM | 14 µM | 28.5 µM | 11.5 µM | 13.1 µM | 11.1 µM | 12.9 µM | 25.8 µM | 12.6 µM | 15.8 µM | 11 µM | 11.7 µM | 9.1 µM | IC50 [3]: 91.6 µM; IC50 [12]: 17.4 µM
7 | COc1ccc2c3c([nH]c2c1)C(CC(CC1=NCCc2c1[nH]c1cc(OC)ccc21)c1ccc(OC(C)=O)c(OC)c1)=NCC3 [compound 6] | – | 70.7 µM | 21.4 µM | – | 15.8 µM | 6.91 µM | 15.8 µM | – | – | – | 18 µM | 16.9 µM | 11 µM | 16.3 µM | 60.5 µM | 14.5 µM | 13.6 µM | 11.5 µM | 11.3 µM | 10.3 µM | IC50 [23]: 74.8 µM
